Reference: PubChem BioAssay (NCI)
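Growth conditions: 96-well plates. Treatment: test compound, 48 hours, 5 concentrations. Analysis: linear interpolation between bracketing concentrations; unreached endpoints set to highest concentration. TGI denotes the concentration required for complete inhibition of growth.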

Tests used:
Assay in all cases: NCI anticancer screen, dose series, 48 h
M19-MEL melanoma = system: M19-MEL melanoma
UO-31 renal = system: UO-31 renal
A498 renal = system: A498 renal
DMS 273 small cell lung = system: DMS 273 small cell lung
RPMI-8226 leukemia = system: RPMI-8226 leukemia
786-0 renal = system: 786-0 renal
NCI-H226 lung = system: NCI-H226 lung
IGROV1 ovarian = system: IGROV1 ovarian
HCC-2998 colon = system: HCC-2998 colon
EKVX NSCLC = system: EKVX NSCLC
OVCAR-4 ovarian = system: OVCAR-4 ovarian
U251 CNS = system: U251 CNS
HOP-18 NSCLC = system: HOP-18 NSCLC
OVCAR-3 ovarian = system: OVCAR-3 ovarian
LOX IMVI melanoma = system: LOX IMVI melanoma
HL-60(TB) leukemia = system: HL-60(TB) leukemia
NCI-H23 lung = system: NCI-H23 lung
MALME-3M melanoma = system: MALME-3M melanoma
SK-OV-3 ovarian = system: SK-OV-3 ovarian
HCT-116 colon = system: HCT-116 colon
HT29 colon = system: HT29 colon
M14 melanoma = system: M14 melanoma
ACHN renal = system: ACHN renal
TK-10 renal = system: TK-10 renal
HCT-15 colon = system: HCT-15 colon
K-562 leukemia = system: K-562 leukemia
SNB-19 CNS = system: SNB-19 CNS
NCI-H522 lung = system: NCI-H522 lung
SN12C renal = system: SN12C renal
CCRF-CEM leukemia = system: CCRF-CEM leukemia
SR leukemia = system: SR leukemia
OVCAR-5 ovarian = system: OVCAR-5 ovarian
NCI-H460 lung = system: NCI-H460 lung
UACC-62 melanoma = system: UACC-62 melanoma
HOP-92 NSCLC = system: HOP-92 NSCLC
SNB-78 CNS = system: SNB-78 CNS
MOLT-4 leukemia = system: MOLT-4 leukemia
DMS 114 small cell lung = system: DMS 114 small cell lung
HOP-62 NSCLC = system: HOP-62 NSCLC
SF-268 CNS = system: SF-268 CNS
SW-620 colon = system: SW-620 colon
SF-539 CNS = system: SF-539 CNS
SK-MEL-2 melanoma = system: SK-MEL-2 melanoma
SK-MEL-28 melanoma = system: SK-MEL-28 melanoma
A549 NSCLC = system: A549 NSCLC
COLO 205 colon = system: COLO 205 colon
KM20L2 colon = system: KM20L2 colon
LXFL 529 NSCLC = system: LXFL 529 NSCLC
KM12 colon = system: KM12 colon
SF-295 CNS = system: SF-295 CNS
SNB-75 CNS = system: SNB-75 CNS
OVCAR-8 ovarian = system: OVCAR-8 ovarian
RXF 393 renal = system: RXF 393 renal
DLD-1 colon = system: DLD-1 colon
SK-MEL-5 melanoma = system: SK-MEL-5 melanoma
UACC-257 melanoma = system: UACC-257 melanoma

With `NC(=O)c1coc(C2OC(CO)C(O)C2O)n1` (stereo unspecified) the TGI (M19-MEL melanoma) was > 100 µM, the TGI (UO-31 renal) was > 100 µM and the TGI (A498 renal) was > 100 µM. The TGI (DMS 273 small cell lung) was > 100 µM, the TGI (RPMI-8226 leukemia) was > 100 µM and the TGI (786-0 renal) was > 100 µM. For the same molecule, the TGI (NCI-H226 lung) was > 100 µM, the TGI (IGROV1 ovarian) was > 100 µM and the TGI (HCC-2998 colon) was > 100 µM. For the same molecule, the TGI (EKVX NSCLC) was > 100 µM, the TGI (OVCAR-4 ovarian) was > 100 µM and the TGI (U251 CNS) was > 100 µM. The TGI (HOP-18 NSCLC) was > 100 µM, the TGI (OVCAR-3 ovarian) was > 100 µM and the TGI (LOX IMVI melanoma) was > 100 µM. For the same molecule, the TGI (HL-60(TB) leukemia) was > 100 µM, the TGI (NCI-H23 lung) was > 100 µM and the TGI (MALME-3M melanoma) was > 100 µM. The TGI (SK-OV-3 ovarian) was > 100 µM, the TGI (HCT-116 colon) was > 100 µM and the TGI (HT29 colon) was > 100 µM. The TGI (M14 melanoma) was > 100 µM, the TGI (ACHN renal) was > 100 µM and the TGI (TK-10 renal) was > 100 µM. For the same molecule, the TGI (HCT-15 colon) was > 100 µM, the TGI (K-562 leukemia) was > 100 µM and the TGI (SNB-19 CNS) was > 100 µM. For the same molecule, the TGI (NCI-H522 lung) was > 100 µM, the TGI (SN12C renal) was > 100 µM and the TGI (CCRF-CEM leukemia) was > 100 µM. The TGI (SR leukemia) was > 100 µM, the TGI (OVCAR-5 ovarian) was > 100 µM and the TGI (NCI-H460 lung) was > 100 µM. The TGI (UACC-62 melanoma) was > 100 µM, the TGI (HOP-92 NSCLC) was > 100 µM and the TGI (SNB-78 CNS) was > 100 µM. For the same molecule, the TGI (MOLT-4 leukemia) was > 100 µM, the TGI (DMS 114 small cell lung) was > 100 µM and the TGI (HOP-62 NSCLC) was > 100 µM. The TGI (SF-268 CNS) was > 100 µM, the TGI (SW-620 colon) was > 100 µM and the TGI (SF-539 CNS) was > 100 µM. The TGI (SK-MEL-2 melanoma) was > 100 µM, the TGI (SK-MEL-28 melanoma) was > 100 µM and the TGI (A549 NSCLC) was > 100 µM. For the same molecule, the TGI (COLO 205 colon) was > 100 µM, the TGI (KM20L2 colon) was > 100 µM and the TGI (LXFL 529 NSCLC) was > 100 µM. For the same molecule, the TGI (KM12 colon) was > 100 µM.
`COc1ccc(N/N=C(\CCN(C)C)c2ccccc2)cc1` gave a TGI (M19-MEL melanoma) of 13.5 µM, a TGI (UO-31 renal) of 3.99 µM and a TGI (A498 renal) of 29.6 µM. It also gave a TGI (DMS 273 small cell lung) of 11.1 µM, a TGI (RPMI-8226 leukemia) of 7.5 µM and a TGI (786-0 renal) of 12.4 µM. For the same molecule, the TGI (IGROV1 ovarian) was 17.8 µM, the TGI (EKVX NSCLC) was 56.9 µM and the TGI (SF-295 CNS) was 1.65 µM. For the same molecule, the TGI (OVCAR-4 ovarian) was 17.1 µM, the TGI (SNB-75 CNS) was 53 µM and the TGI (U251 CNS) was 4.55 µM. For the same molecule, the TGI (HOP-18 NSCLC) was > 100 µM, the TGI (OVCAR-3 ovarian) was 11.4 µM and the TGI (LOX IMVI melanoma) was 7.74 µM. For the same molecule, the TGI (HL-60(TB) leukemia) was 12.9 µM, the TGI (OVCAR-8 ovarian) was 27.2 µM and the TGI (NCI-H23 lung) was 19.7 µM. The TGI (MALME-3M melanoma) was 35.2 µM, the TGI (RXF 393 renal) was 29.7 µM and the TGI (SK-OV-3 ovarian) was 9.74 µM. It also gave a TGI (HCT-116 colon) of 13.8 µM, a TGI (HT29 colon) of 23.6 µM and a TGI (M14 melanoma) of 24.2 µM. The TGI (ACHN renal) was 4.84 µM, the TGI (DLD-1 colon) was 11.9 µM and the TGI (TK-10 renal) was 6.02 µM. The TGI (HCT-15 colon) was 4.57 µM, the TGI (K-562 leukemia) was 7.31 µM and the TGI (SNB-19 CNS) was 14.5 µM. For the same molecule, the TGI (NCI-H522 lung) was 30 µM, the TGI (SN12C renal) was 17.2 µM and the TGI (CCRF-CEM leukemia) was 23.5 µM. For the same molecule, the TGI (SK-MEL-5 melanoma) was 21.2 µM, the TGI (SR leukemia) was 15.6 µM and the TGI (UACC-257 melanoma) was 16.4 µM. For the same molecule, the TGI (OVCAR-5 ovarian) was 91.7 µM, the TGI (NCI-H460 lung) was 10.8 µM and the TGI (UACC-62 melanoma) was 6.23 µM. For the same molecule, the TGI (SNB-78 CNS) was 26.9 µM, the TGI (MOLT-4 leukemia) was 44 µM and the TGI (DMS 114 small cell lung) was 27.6 µM. For the same molecule, the TGI (HOP-62 NSCLC) was 9.77 µM, the TGI (SF-268 CNS) was > 100 µM and the TGI (SW-620 colon) was 10.9 µM. For the same molecule, the TGI (SF-539 CNS) was 3.69 µM, the TGI (SK-MEL-2 melanoma) was 18.9 µM and the TGI (SK-MEL-28 melanoma) was 7.83 µM. It also gave a TGI (COLO 205 colon) of 7.84 µM, a TGI (KM20L2 colon) of 1.71 µM and a TGI (LXFL 529 NSCLC) of 3.8 µM. It also gave a TGI (KM12 colon) of 18 µM.
